Legend:
[1] = tested on: larvae of the mustard beetle (Phaedon cochleariae); test: Phaedon test (PHAECO spray treatment); assay type: in vivo; conditions: Chinese cabbage discs, after 7 days; for pest or weed control at 500 g/ha: Phaedon cochleariae, 168 h, read-out: efficacy; for efficacy: 500 g/ha
Protocol: Phaedon Test ([…] Spray Treatment) Solvent: 78.0 parts by weight of acetone • • 1.5 parts by weight of dimethylformamide Emulsifier: 0.5 part by weight of alkylaryl polyglycol ether To prepare an appropriate active ingredient preparation, 1 part by weight of active ingredient is mixed with the stated amounts of solvent and emulsifier, and the concentrate is diluted with emulsifier-containing water to the desired concentration. Discs of Chinese cabbage (Brassica pekinensis) are sprayed with an active ingredient preparation of the desired concentration and, after drying, populated with larvae of the mustard beetle (Phaedon cochleariae). After 7 days, the efficacy in % is determined. 100% means that all beetle larvae have been killed; 0% means that none of the beetle larvae have been killed.

[2] = tested on: green peach aphid (Myzus persicae); test: Myzus test (MYZUPE spray treatment); assay type: in vivo; conditions: Chinese cabbage discs, after 6 days; for pest or weed control at 500 g/ha: Myzus persicae, 144 h, read-out: efficacy; for efficacy: 500 g/ha
Protocol: Myzus Test (MYZUPE Spray Treatment) Solvent: 78 parts by weight of acetone • • 1.5 parts by weight of dimethylformamide Emulsifier: 0.5 part by weight of alkylaryl polyglycol ether To prepare an appropriate active ingredient preparation, 1 part by weight of active ingredient is mixed with the stated amounts of solvent and emulsifier, and the concentrate is diluted with emulsifier-containing water to the desired concentration. Discs of Chinese cabbage (Brassica pekinensis) infested by all stages of the green peach aphid (Myzus persicae) are sprayed with an active ingredient preparation of the desired concentration. After 6 days, the efficacy in % is determined. 100% means that all of the aphids have been destroyed; 0% means that none of the aphids have been destroyed.

[3] = tested on: red spider mite (Tetranychus urticae); test: Tetranychus test, OP-resistant (TETRUR spray treatment); assay type: in vivo; conditions: 500 g/ha, bean leaf discs, after 6 days; for pest or weed control at 500 g/ha: Tetranychus urticae, foliar, 144 h, read-out: efficacy
Protocol: Tetranychus Test, OP-Resistant (TETRUR Spray Treatment)
Solvent: 78.0 parts by weight of acetone • • 1.5 parts by weight of dimethylformamide
Emulsifier: 0.5 part by weight of alkylaryl polyglycol ether
To prepare an appropriate active ingredient preparation, 1 part by weight of active ingredient is mixed with the stated amounts of solvent and emulsifier, and the concentrate is diluted with emulsifier-containing water to the desired concentration. Discs of bean leaves (Phaseolus vulgaris) infested by all stages of the red spider mite (Tetranychus urticae) are sprayed with an active ingredient preparation of the desired concentration. After 6 days, the efficacy in % is determined. 100% means that all spider mites have been killed; 0% means that none of the spider mites have been killed.

[4] = logP by HPLC on reversed-phase columns (C 18), EEC Directive 79/831 Annex V.A8; assay type: physicochemical; conditions: acidic range pH 2.7, 0.1% aqueous formic acid and acetonitrile; for chromatographic logP: reversed-phase C18 HPLC column, pH 2.7, * LC-MS, read-out: log P
Excerpt: [table] The calibration is effected with unbranched alkan-2-ones (having 3 to 16 carbon atoms) with known logP values (logP values determined on the basis of the retention times by linear interpolation between two successive alkanones).

[5] = tested on: caterpillars of the armyworm (Spodoptera frugiperda); test: Spodoptera frugiperda test (SPODFR spray treatment); assay type: in vivo; conditions: maize leaf discs, after 7 days; for pest or weed control at 500 g/ha: Spodoptera frugiperda, foliar, 168 h, read-out: efficacy; for efficacy: 500 g/ha
Protocol: Spodoptera frugiperda Test (SPODFR Spray Treatment) Solvent: 78.0 parts by weight of acetone • • 1.5 parts by weight of dimethylformamide Emulsifier: 0.5 part by weight of alkylaryl polyglycol ether To prepare an appropriate active ingredient preparation, 1 part by weight of active ingredient is mixed with the stated amounts of solvent and emulsifier, and the concentrate is diluted with emulsifier-containing water to the desired concentration. Discs of maize leaves (Zea mays) are sprayed with an active ingredient preparation of the desired concentration and, after drying, populated with caterpillars of the armyworm (Spodoptera frugiperda). After 7 days, the efficacy in % is determined. 100% means that all caterpillars have been killed; 0% means that none of the caterpillars have been killed.

[6] = tested on: unfed adult fleas (Ctenocephalides felis); test: Ctenocephalides felis test (CTECFE); assay type: in vivo; conditions: 100 ppm in citrated cow's blood; after 2 days
Protocol: Ctenocephalides felis Test ([…]) Solvent: 1 part by weight of dimethyl sulphoxide For the purpose of preparing an appropriate active ingredient formulation, 10 mg of active ingredient are mixed with 0.5 ml of dimethyl sulphoxide. A portion of the concentrate is diluted with citrated cow's blood and the desired concentration is established. About 20 unfed adult fleas (Ctenocephalides felis) are introduced into a chamber closed at the top and bottom with gauze. A metal cylinder, the bottom of which is closed with Parafilm, is placed onto the chamber. The cylinder contains the blood/active ingredient preparation, which can be imbibed by the fleas through the Parafilm membrane. After 2 days, the kill in % is determined. 100% means that all fleas have been killed; 0% means that none of the fleas have been killed.

[7] = tested on: Boophilus microplus; test: Boophilus microplus test (BOOPMI injection); assay type: in vivo; conditions: 20 μg animal; injection into the abdomen; after 7 days, laying of fertile eggs
Protocol: Boophilus microplus Test (BOOPMI Injection) Solvent: dimethyl sulphoxide To prepare an appropriate active ingredient formulation, 10 mg of active ingredient are mixed with 0.5 ml of solvent and the concentrate is diluted with solvent to the desired concentration. The active ingredient solution is injected into the abdomen (Boophilus microplus), and the animals are transferred into dishes and stored in a climate-controlled room. The efficacy is assessed by laying of fertile eggs. After 7 days, the efficacy in % is determined. 100% means that none of the ticks has laid any fertile eggs.

[8] = tested on: adult Musca domestica; test: Musca domestica test; assay type: in vivo; conditions: 100 ppm; after 2 days
Protocol: Musca domestica Test Solvent: dimethyl sulphoxide To prepare an appropriate active ingredient formulation, 10 mg of active ingredient are mixed with 0.5 ml of dimethyl sulphoxide and the concentrate is diluted with water to the desired concentration. Vessels containing a sponge treated with the active ingredient preparation of the desired concentration are populated with adult Musca domestica. After 2 days, the kill in % is determined. 100% means that all of the flies have been killed; 0% means that none of the flies have been killed.

chromatographic logP [4]	Structure (SMILES)	pest or weed control at 500 g/ha [1] [%]	pest or weed control at 500 g/ha [2] [%]	pest or weed control at 500 g/ha [3] [%]	pest or weed control at 500 g/ha [5] [%]	efficacy [1] [%]	efficacy (kill) [6] [%]	efficacy [7] [%]	efficacy [5] [%]	efficacy [2] [%]	efficacy [3] [%]	also measured
3.26	COc1nccnc1-n1nc(C(F)(F)Cl)c(-c2cc(Cl)c3c(c2)OCO3)c1N [Ex. 169]	100	100	100	100							
	COc1nccnc1-n1nc(C(F)(F)F)c(-c2cc(Cl)c3c(c2)COCO3)c1N [Ex. 135]					100	100	100	80			
	COc1nccnc1-n1nc(C(F)(F)F)c(-c2cc(Cl)cc(C(F)(F)F)c2)c1N [Ex. 10]						90	100				efficacy (kill) [8]: 100%
	COc1nccnc1-n1nc(C(F)(F)F)c(-c2cc(Cl)cc(C(F)(F)F)c2)c1NCc1ccccc1 [Ex. 33]					100				80	90	
	C=C(C)c1nn(-c2nccnc2OC)c(N)c1-c1cc(Cl)cc(Cl)c1 [Ex. 167]					100				100	100	
2.66	COc1nccnc1-n1nc(C(F)(F)F)c(-c2cc(C#N)c3c(c2)OCO3)c1N [Ex. 150]	100	100	100	100							
3.18	COc1nccnc1-n1nc(C(F)(F)F)c(-c2cc(Br)c3c(c2)OCO3)c1N [Ex. 74]	100	90	90	100							
3.27	CCOc1nccnc1-n1nc(C(F)(F)F)c(-c2cc(F)c3c(c2)OCO3)c1N [Ex. 175]	100	100	100	100							
3.48	CCOc1nccnc1-n1nc(C(F)(F)F)c(-c2cc(Cl)c3c(c2)OCO3)c1N [Ex. 171]	100	100	100	100							
	COc1nccnc1-n1nc(C(F)(F)F)c(-c2cc(Cl)cc(Cl)c2)c1N [Ex. 6]					100	90	100	83			efficacy (kill) [8]: 80%
	C=CCN(CC=C)c1c(-c2cc(Cl)cc(C(F)(F)F)c2)c(C(F)(F)F)nn1-c1nccnc1OC [Ex. 103]									80		
	COc1nccnc1-n1nc(C(F)(F)C(F)(F)F)c(-c2cc(F)cc(C(F)(F)F)c2)c1N [Ex. 21]					100		100	100	100	100	efficacy (kill) [8]: 100%
	COc1nccnc1-n1nc(C(C)(C)F)c(-c2cc(Cl)cc(Cl)c2)c1N [Ex. 168]					100			100	100	100	
	CCOc1nccnc1-n1nc(C(F)(F)F)c(-c2cc(Cl)cc(C(F)(F)F)c2)c1N [Ex. 12]					100	90	100			90	efficacy (kill) [8]: 100%
	COc1nccnc1-n1nc(C(F)(F)F)c(-c2cc(Br)c3c(c2)OCCCO3)c1N [Ex. 131]					100	100	100	100		100	efficacy (kill) [8]: 100%
	COc1nccnc1-n1nc(C(F)(F)F)c(-c2cc(Cl)c3c(c2)OCCCO3)c1N [Ex. 136]					100	100	100				
3.01	CCOc1nccnc1-n1nc(C(F)(F)F)c(-c2cc(C#N)c3c(c2)OCO3)c1N [Ex. 172]	100	100	100	100							
2.96	COc1nccnc1-n1nc(C(C)C)c(-c2cc(Cl)c3c(c2)OCO3)c1N [Ex. 77]	100	100	100	100							
	COc1nccnc1-n1nc(C(F)(F)C(F)F)c(-c2cc(Cl)cc(C(F)(F)F)c2)c1N [Ex. 59]					100			83	100	100	
	COc1ccc(CNc2c(-c3cc(Cl)cc(C(F)(F)F)c3)c(C(F)(F)F)nn2-c2nccnc2OC)cc1 [Ex. 41]					100	80			90		
	COc1cc(-c2c(C(F)(F)F)nn(-c3nccnc3OC)c2N)cc(C(F)(F)F)c1OC [Ex. 89]					100	100	100	100			efficacy (kill) [8]: 80%
	CSc1nccnc1-n1nc(C(F)(F)F)c(-c2cc(Cl)cc(C(F)(F)F)c2)c1N [Ex. 28]					100		100	100			log P ([4]; * LC-MS): 4.9*
2.91	COc1nccnc1-n1nc(C(F)(F)F)c(-c2cc(F)c3c(c2)OCO3)c1N [Ex. 174]	100	100	100	100							
2.96	CCOc1nccnc1-n1nc(CC)c(-c2cc(Cl)c3c(c2)OCO3)c1N [Ex. 170]	100	100	100	100							
	C=Cc1nn(-c2nccnc2OC)c(N)c1-c1cc(Cl)cc(C(F)(F)F)c1 [Ex. 9]					100		100	100	100	100	
	COc1nccnc1-n1nc(C(F)(F)C(F)(F)C(F)(F)F)c(-c2cc(Cl)cc(C(F)(F)F)c2)c1N [Ex. 46]					100	80	100	100	80	80	

— patent US8513260B2, “Pyrazinylpyrazoles” (Bayer CropScience AG, priority 2009, dated 2013)
